# From patent publication US20200148682A1, “AKT ISOZYME-SPECIFIC COVALENT INHIBITORS DERIVED FROM REDOX-SIGNALING LIPIDS” (Cornell University, priority 2017, published 2020)
# “Also recorded” adds a separate entry of the source.
# How the values were obtained:
# Format in all cases: cell-based
# Akt3(C119S) = target: T1, Akt3(C119S) (Homo sapiens, UniProt Q9Y243, C119S); assay: AKTAR FRET assay in live HEK293T cells; settings: for Akt3(C119S) activity (FRET) during treatment: 5 μM; for Akt3(C119S) activity (FRET) after drug withdrawal: 24 hours after removal from media
# T1 construct: expressed in transfected cells; host or cells: HEK293T
# T1 sequence (Q9Y243 whole entry C119S): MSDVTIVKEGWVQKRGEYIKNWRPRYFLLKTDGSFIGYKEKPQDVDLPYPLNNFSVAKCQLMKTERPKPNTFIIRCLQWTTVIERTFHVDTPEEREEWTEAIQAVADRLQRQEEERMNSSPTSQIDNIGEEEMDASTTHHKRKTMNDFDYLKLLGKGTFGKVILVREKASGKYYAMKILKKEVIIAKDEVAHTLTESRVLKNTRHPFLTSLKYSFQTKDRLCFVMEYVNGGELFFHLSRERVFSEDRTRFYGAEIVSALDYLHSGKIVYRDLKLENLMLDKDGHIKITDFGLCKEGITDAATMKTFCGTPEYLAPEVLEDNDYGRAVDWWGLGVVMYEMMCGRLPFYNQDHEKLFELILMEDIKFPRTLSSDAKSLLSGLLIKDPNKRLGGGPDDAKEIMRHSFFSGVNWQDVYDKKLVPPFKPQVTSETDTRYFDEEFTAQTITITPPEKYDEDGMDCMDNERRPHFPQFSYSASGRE
# Description: (§1) FIGS. 21C-21D: HEK293T cells were transfected with plasmids encoding AKTAR and Halo-Akt3 (1:1). After 12 hours, cells were treated with MK-2206 (5 μM) or MK-HNE (5 μM). After 24 hours and 48 hours Akt3 activity was measured using ratiometric FRET analysis in live cells. After 48 hours, cells were washed two times with drug-free media containing 10% FBS and allowed to recover in 3% FBS MEM media for another 24 hours, after which time Akt3 activity was assayed using FRET again. wd=withdrawal for 24 hours. […] FIG. 21D is a graph showing quantitation of all data sets for treatment of HEK293T cells expressing Halo-Akt3/AKTAR. […] FIG. 21F is a graph showing quantitation of all data sets for treatment of HEK293T cells expressing Halo-Akt2/AKTAR. […] FIG. 21H is a graph showing quantitation of all data sets for treatment of HEK293T cells expressing Halo-Akt3C119S mutant/AKTAR.
# (§2) HEK293T cells were plated in imaging plates at 60% confluence. After 24 hours, cells in each plate were transfected with 1 μg AktAR reporter plasmid and 1 μg plasmid of the designated HaloTag fusion Akt gene in PCS2+8 vector, using TransIT 2020 (6 μL) (FIG. 21B). 12 hours after transfection, cells were treated with 5 μM inhibitor or the equivalent final volume of DMSO in rinse medium containing 3% FBS and incubated for 24 hours before imaging. FRET imaging was performed using a Zeiss LSM 710 confocal microscope as previously described. Briefly, a 458 nm argon laser was used for excitation. The signals in the cyan channel (463-498 nm) and the yellow channel (525-620 nm) were recorded. Cells were then incubated in drug medium for another 24 hours before next imaging. The medium was aspirated and the cells were gently rinsed with 3% FBS in rinse medium twice every 30 min over the next hour, Fresh rinse medium with 3% FBS was added and the cells were imaged again after 24 hours. For quantification, the mean CFP and YFP signal intensity was measured using Image by drawing a freehand circle around the cells, and the ratio image was calculated. Graphing and data analysis (Student's t-test) were performed using Prism software.
# (§3) One of the key benefits of covalent inhibition is the ability to uncouple pharmacokinetics from pharmacodynamics. This effect is achieved, because once irreversible inhibition occurs, an irreversible inhibitor will remain bound to its target post clearance of the unbound inhibitor. On the other hand, for a reversible inhibitor, as drug concentration drops, the drug is released from its target and inhibition is lost. This situation can be modeled in cell culture by removal of the drug from the media and measuring changes in activity as a function of time post drug removal. Akt inhibition was assayed using AKTAR (FIG. 21A). This fusion of two fluorescent proteins emits two different frequencies of light when excited with blue light, depending on the activity of Akt. When the construct is selectively phosphorylated by Akt, both blue and green light are emitted, due to fluorescence resonance energy transfer (FRET) from the CFP to the YFP. However, when the protein is not phosphorylated, emission is mainly in the blue channel. Thus the ratio of green to blue emission is a direct readout of Akt activity in live cells.
# Halo-Akt3 [1] = target: T2, Halo-Akt3 (Homo sapiens, UniProt Q9Y243); assay: AKTAR FRET assay in live HEK293T cells; settings: for Akt3 activity (green/blue FRET ratio) during treatment: 5 μM, 24 hours
# T2 construct: expressed in transfected cells; host or cells: HEK293T
# T2 sequence (Q9Y243 whole entry): as the sequence (Q9Y243 whole entry C119S) above, with S119C counted along it
# Description: as §1, §2, §3
# Halo-Akt2 = target: T3, Halo-Akt2 (Homo sapiens, UniProt P31751); assay: AKTAR FRET assay in live HEK293T cells; settings: 5 μM, 24 hours
# T3 construct: expressed in transfected cells; host or cells: HEK293T
# T3 sequence (P31751 whole entry): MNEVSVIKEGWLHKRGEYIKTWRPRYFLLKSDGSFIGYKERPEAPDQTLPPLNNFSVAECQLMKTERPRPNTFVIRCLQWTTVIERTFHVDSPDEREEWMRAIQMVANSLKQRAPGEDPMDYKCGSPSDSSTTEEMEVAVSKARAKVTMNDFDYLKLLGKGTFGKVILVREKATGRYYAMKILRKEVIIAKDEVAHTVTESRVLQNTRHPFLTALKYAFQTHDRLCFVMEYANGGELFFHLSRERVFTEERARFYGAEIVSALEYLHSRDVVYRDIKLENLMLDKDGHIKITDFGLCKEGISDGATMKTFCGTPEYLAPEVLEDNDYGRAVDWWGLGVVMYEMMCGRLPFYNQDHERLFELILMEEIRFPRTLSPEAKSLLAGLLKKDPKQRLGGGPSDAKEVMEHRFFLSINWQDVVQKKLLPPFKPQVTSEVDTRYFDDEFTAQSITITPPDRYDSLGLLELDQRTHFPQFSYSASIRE
# Description: as §1, §2, §3
# Halo-Akt3 [2] = target: T2, Halo-Akt3; assay: In-gel fluorescence assay (Cy5-azide click) of covalent labeling in transfected HEK293T cells; settings: 5 μM, 48 hours
# Description: HEK293T cells were transfected with Halo-Akt3 for 20 hours, then treated with the stated compound (5 μM, 48 hours). After this time, cells were lysed and the labeling was assayed by click chemistry. […] FIGS. 19A, 19C top gels are images showing in gel fluorescence, Cy5 channel. M is a molecular weight ladder. FIG. 19A, 19C lower panels are images of western blots (probing for Halo and actin, respectively) transferred from the same gel as the top image. […] FIGS. 19E-19F are graphs showing quantitation of in-gel Cy5 signal intensity, divided by the western blot signal for Halo.
# Cell transfection with the designated plasmid encoding a given HaloTag-Akt fusion gene was carried out following the general procedure described in Example 12. After 20-24 hours, the transfection media were aspirated and replaced with fresh 2 mL rinse MEM medium supplemented with 3% FBS containing the indicated concentration of inhibitor or the equivalent final volume of DMSO and the plates were incubated for the indicated period of time. Cells were then harvested and lysed following the general procedure described in Examples 11 and 13. A portion of the lysate was made up to 25 μL final volume containing, in final concentrations, 5% t-BuOH, [2 mM TCEP, 1% SDS, 1 mM CuSO4, 0.1 mM Cu(TBTA), 10 μM Cy5 azide made up as a 10× stock in water] and 1.0 mg/mL lysate protein. The samples were incubated at 37° C. for 30 min and subsequently quenched with 8 μL of 4×Laemmeli dye containing 6% f ME. After an additional 5-min incubation at 37° C., samples were resolved on a 10% SDS-PAGE gel following the general procedure described in Example 14. After electrophoresis, the gel was rinsed three times with ddH2O and imaged on a Bio-Rad Chemi-doc-MP Imager. Where applicable, the gel was transferred to a PVDF membrane for western blot analysis following the general procedure described in Example 15.
# Akt3 C119S mutant = target: T4, Akt3 C119S mutant (Homo sapiens, UniProt Q9Y243, C119S); assay: as above; settings: 5 μM, 48 hours
# T4 construct: expressed in transfected cells; host or cells: HEK293T
# T4 sequence (Q9Y243 whole entry C119S): as the sequence (Q9Y243 whole entry C119S) above
# Description: (§4) Overexpressed Akt proteins were labeled with Cy5-small-molecule-fluorophore-conjugated azide (Cy5-azide) using standard click chemistry. FIG. 16A top gel is an image showing Cy5 channel (used to evaluate the extent of covalent binding on each Akt protein). The lysate from non-transfected HEK 293T cells was also used for comparison. M, molecular weight ladder. […] FIG. 16B top gel is an image showing Cy5 channel. M is a molecular weight ladder. FIG. 16B bottom is an image showing western blots probing Halo and actin, respectively. […] Error bars designate s.d. […] Normalized fluorescent signal (NFS) was calculated from the following equation: NFS=[(Cy5(X μM drug)−Cy5(No transfection))/Halo(X μM drug)]÷[(Cy5(no drug)−Cy5(No transfection))/Halo(no drug)]. The relative fluorescent signal (RFS) is calculated from the following equation: RFS=(Cy5(X μM drug)/Halo(X μM drug)) (Cy5(no drug)/Halo(no drug))
# (§5) Cell transfection with the designated plasmid encoding a given HaloTag-Akt fusion gene was carried out following the general procedure described in Example 12. After 20-24 hours, the transfection media were aspirated and replaced with fresh 2 mL rinse MEM medium supplemented with 3% FBS containing the indicated concentration of inhibitor or the equivalent final volume of DMSO and the plates were incubated for the indicated period of time. […]
# Akt1 = target: T5, Akt1 (Homo sapiens, UniProt P31749); assay: as above; settings: 5 μM, 48 hours
# T5 construct: expressed in transfected cells; host or cells: HEK293T
# T5 sequence (P31749 whole entry): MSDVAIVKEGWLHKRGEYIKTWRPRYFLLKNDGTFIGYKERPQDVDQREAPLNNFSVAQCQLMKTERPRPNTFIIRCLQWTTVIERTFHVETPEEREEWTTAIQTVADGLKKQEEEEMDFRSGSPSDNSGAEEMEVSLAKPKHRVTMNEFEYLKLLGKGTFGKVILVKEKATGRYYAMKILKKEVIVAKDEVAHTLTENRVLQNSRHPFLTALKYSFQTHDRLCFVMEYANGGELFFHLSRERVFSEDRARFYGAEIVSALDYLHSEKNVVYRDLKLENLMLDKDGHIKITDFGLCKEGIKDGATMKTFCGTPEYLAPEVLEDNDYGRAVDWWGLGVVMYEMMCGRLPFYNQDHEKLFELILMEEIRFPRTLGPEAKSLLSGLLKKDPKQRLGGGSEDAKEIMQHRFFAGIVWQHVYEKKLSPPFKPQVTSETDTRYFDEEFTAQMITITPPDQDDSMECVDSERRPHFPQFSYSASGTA
# Description: as §4, §5
# Akt2 (pT309) = target: T6, Akt2 (pT309) (Homo sapiens, UniProt P31751); assay: Western blot and ratiometric ELISA of Akt phosphorylation in HEK293T cells; settings: 5 μM, 48 hours
# T6 construct: expressed in transfected cells; host or cells: HEK293T
# T6 sequence (P31751 whole entry): as the sequence (P31751 whole entry) above
Compound,Akt3(C119S) activity (FRET) during treatment (Akt3(C119S)),Akt3(C119S) activity (FRET) after drug withdrawal (Akt3(C119S)),Akt3 activity (green/blue FRET ratio) during treatment (Halo-Akt3 [1]),"Akt3 activity (green/blue FRET ratio) after drug withdrawal (Halo-Akt3 [1]; 48 hours drug, then 24 hours withdrawal)",Akt2 activity (green/blue FRET ratio) during treatment (Halo-Akt2),covalent labeling of Halo-Akt3 (Halo-Akt3 [2]),covalent modification of C119S mutant of Akt3 (Akt3 C119S mutant),covalent inhibition of Akt1 isoform (Akt1),phosphorylation level of Akt2 (Akt2 (pT309))
NC1(c2ccc(-c3nc4ccn5c(=O)[nH]nc5c4cc3-c3ccccc3)cc2)CCC1 [MK-2206],Akt inhibition was observed,no inhibition was observed,decrease in green/blue fluorescence,returned to those observed in untreated cells,decrease in green/blue fluorescence,,,,
"C#CCCCC(F)/C=C/C(=O)NC1(c2ccc(-c3nc4ccn5c(=O)[nH]nc5c4cc3-c3ccccc3)cc2)CCC1.Cl (centres unmarked) [MK-FNE, (E)-8-(4-(1-(4-Fluoronon-2-en-8-ynamido)cyclobutyl)phenyl)-3-oxo-9-phenyl-2,3-dihydro-[1,2,4]triazolo[3,4-f][1,6]naphthyridin-7-ium Chloride]",,,decrease in green/blue fluorescence,,decrease in green/blue fluorescence,able to elicit covalent labeling,,,
"C#CCCCC(O)/C=C/C(=O)NC1(c2ccc(-c3nc4ccn5c(=O)[nH]nc5c4cc3-c3ccccc3)cc2)CCC1.Cl (centres unmarked) [MK-HNE, (E)-8-(4-(1-(4-Hydroxynon-2-en-8-ynamido)cyclobutyl)phenyl)-3-oxo-9-phenyl-2,3-dihydro-[1,2,4]triazolo[3,4-f][1,6]naphthyridin-7-ium Chloride]",Akt inhibition was observed,no inhibition was observed,,,,labeling was observed; also recorded: able to elicit covalent labeling,no covalent modification,no covalent inhibition,did not affect phosphorylation levels
